Data as given in patent US20250276127A1, “THERAPEUTIC METHODS AND DEVICES” (NORWEGIAN UNIVERSITY OF SCIENCE AND TECHNOLOGY (NTNU), priority 2021, published 2025).

Assays:
Assay type in all cases: in vivo, human
blood flow in the skin = assay: Local skin blood flow by laser Doppler after subcutaneous injection
Text: Likewise, the compound with glucagon activity may be administered in an amount which is effective to achieve a local vasodilatory effect, or an effect of increasing local blood flow at the site of its administration. Vasodilatory activity may be assessed, or determined, by measuring blood flow by a laser Doppler method, at an administration site on or in a human or non-human animal subject after administration of the compound. For example, the compound may be injected SC and blood flow just below the skin surface may be determined at the injection site. Such a method is described in Example 1. However, for the methods and uses herein where the compound is used for its effect in the delivery of a therapeutically active agent (e.g. insulin) or in conjunction with the operation of a sensor (e.g. glucose sensor), it is not necessary, and indeed it may be undesirable, for the compound to exert its usual therapeutic effect of increasing blood glucose, or counteracting an episode of hypoglycaemia. The amount, or dose, administered may thus be less, and indeed typically will be less, than a dose which is administered, or typically used, to treat hypoglycaemia. Doses for the compound are discussed in more detail below.
An experiment was performed on 2 young healthy adult human volunteers. The effect of subcutaneous (hereinafter, SC) injections on blood flow in the skin were tested 6 times in the 2 subjects (4 tests in a subject and 2 tests in a subject). The glucagon was administered by SC injection of 0.1 ml of 1 mg/ml glucagon (i.e. an injection containing 0.1 mg of glucagon) to sites on the lateral side of both upper arms of the subjects. Blood flow was measured on the skin surface at the site of administration by laser Doppler technology. As a control the same volume of physiological saline (0.9%) was injected as a placebo at the same sites.
This effect was further investigated in a similar experiment with varying doses of glucagon. Again, the same 2 subjects were used, and SC injections of glucagon or placebo were given 6 times (4 tests in a subject and 2 tests in a subject). The glucagon was administered to sites on the lateral sides of both upper arms in amounts of 0.1 mg, 0.015 mg and 0.01 mg (0.1 ml of glucagon at concentrations of 0.1 mg/ml, 0.015 mg/ml and 0.01 mg/ml, respectively). Blood flow was measured on the skin surface at the site of administration by laser Doppler technology. As a control the same volume of physiological saline (0.9%) was injected as a placebo at the same sites.
Further experiments were conducted to investigate the effect on local blood flow of subcutaneous injections of glucagon in the abdomen. Again, 2 subjects were used, and SC injections of glucagon or placebo were given 6 times (3 tests in a subject and 3 tests in a subject). The glucagon was administered by SC injection of 0.1 ml of 1 mg/ml glucagon (i.e. an injection containing 0.1 mg of glucagon) to sites on both sides of the abdomen of the subjects. Blood flow was measured on the skin surface at the site of administration by laser Doppler technology. As a control the same volume of physiological saline (0.9%) was injected as a placebo at the same sites.
This effect was further investigated in a similar experiment with varying doses of glucagon. Again, 2 subjects were used, and SC injections of glucagon or placebo were given 6 times (3 tests in a subject and 3 tests in a subject). The glucagon was administered to sites on both sides of the abdomen in amounts of 0.1 mg, 0.05 mg and 0.015 mg (0.1 ml of glucagon at concentrations of 0.1 mg/ml, 0.05 mg/ml and 0.015 mg/ml, respectively). Blood flow was measured on the skin surface at the site of administration by laser Doppler technology. As a control the same volume of physiological saline (0.9%) was injected as a placebo at the same sites. […]

[1] = tested on: glucose levels detected by CGM; assay: CGM (Dexcom G6) glucose sensing at meals with injection at the sensor site; conditions: FIG. 26
Protocol: This effect was further investigated in a similar experiment to investigate the effect of glucagon on the performance of CGMs. Again, 2 subjects were used showing data from 12 meals in a non-diabetic […] and 11 meals in a non-diabetic […] collected with Dexcom G6 CGMs. The subjects wore two CGMs placed symmetrically on the lateral side of each overarm. 1-3 minutes before the start of ingesting the meal 0.1 ml of glucagon (1 mg/ml) was injected at the site of one CGM and 0.1 ml of placebo (saline (0.9%) on the contralateral site of CGM. Before each meal, the site of glucagon delivery was decided by a new randomization.

local blood flow [2] = assay: Impact of injection technique (speed) on local blood flow, laser Doppler; conditions: abdomen
Protocol: To observe the impact of injection technique, and particularly speed of injection, on the effect induced by subcutaneous injection of glucagon, an experiment was conducted to compare 2 different injection techniques; one where the injection lasted 1-3 seconds (technique 1), and one where the injection lasted at least 10 seconds (technique 2). 6 injections were given with technique 1 and 4 injections were given with technique 2. In each case, 0.1 mg of glucagon (in a 0.1 ml injection) was injected subcutaneously into the abdomen of the subjects. For each technique, half of the injections were given to a subject and half to a subject. Blood flow was measured on the skin surface at the site of administration by laser Doppler technology.
In addition, in FIG. 21 the same results are shown together with the results of placebo injections of 0.1 ml of 0.9% saline using the same 2 techniques. For technique 1, 6 placebo injections were given, and for technique 2, 2 placebo injections were given. Again, half of the injections with each technique were done in a subject, and half were done in a subject.

local blood flow [3] = assay: Impact of laser Doppler probe placement on measured local blood flow; conditions: 0.015 mg SC, upper arms
Protocol: The impact of the placement of the laser Doppler probe on the measured effect of glucagon injections on local blood flow was investigated by giving injections at multiple sites with varying distances from the probe. The experiment involved the subcutaneous injection of 0.015 mg of glucagon (in 0.1 ml) or 0.1 ml of 0.9% saline as a control at sites on the lateral sides of the upper arms of the subjects. The injections were given either under the probe, 1.6 cm from the probe centre, 3 cm from the probe centre, or 5 cm from the probe centre. In each case, 6 injections were given, except for 1.6 cm from the probe centre where only 4 saline injections were given. In all cases, half of the injections were given to a subject and half to a subject, except for under the probe, where 4 tests were done on the subject and 2 on the subject. Blood flow was measured on the skin surface by laser Doppler technology.

For glucagon, the “increase in local blood flow relative to higher doses” value (blood flow in the skin; 0.01 mg SC, lateral upper arms, FIG. 15) was “similar, although less pronounced”, the “effect on local blood flow relative to control injection” value (blood flow in the skin; 0.01 mg SC, thighs, FIG. 23/24) was “did not appear to have a significant effect on local blood flow” and the “effect on local blood flow relative to control injection” value (blood flow in the skin; 0.015 mg SC, abdomen, FIG. 18/19) was “did not appear to have a significant effect on local blood flow”. The “increase in local blood flow” value (blood flow in the skin; 0.015 mg SC, lateral upper arms, average of 6 tests, FIG. 15) was 400-450 % of the baseline reading, the “increase in local blood flow among doses” value (blood flow in the skin; 0.03 mg SC, thighs, FIG. 23/24) was “biggest increase in local blood flow” and the “initial increase in local blood flow” value (blood flow in the skin; 0.05 mg SC, abdomen, FIG. 18/19) was “did not result in a significant increase in local blood flow initially”. The “local blood flow versus control injection after 15 minutes” value (blood flow in the skin; 0.05 mg SC, abdomen, after 15 minutes) was “higher than that observed at the same time after the control injection”, the “persistence of increase in local blood flow versus control” value (blood flow in the skin; 0.05 mg SC, thighs, FIG. 22) was “more persistent than that observed following administration of the control” and the “time after which blood flow values of glucagon and placebo were approximately equal” value (blood flow in the skin; 0.05 mg SC, thighs, FIG. 22) was “around 30 minutes”. For the same substance, the “increase in local blood flow versus saline control” value (blood flow in the skin; 0.05 mg SC, thighs, FIG. 23/24) was “slightly larger than that observed following administration of the saline control”, the “persistence of increase in local blood flow versus saline control” value (blood flow in the skin; 0.05 mg SC, thighs, FIG. 23/24) was “significantly more persistent” and the “increase in local blood flow versus saline” value (blood flow in the skin; 0.05 mg SC, thighs, average of 7 tests, FIG. 22) was “slightly greater than that observed when saline was administered”. For the same substance, the “persistence of increase in local blood flow versus control” value (blood flow in the skin; 0.1 mg SC, abdomen, FIG. 17) was “more persistent than that observed following administration of the control”, the “time after which blood flow values of glucagon and placebo were approximately equal” value (blood flow in the skin; 0.1 mg SC, abdomen, FIG. 17) was “around 30 minutes” and the “initial increase in local blood flow versus control” value (blood flow in the skin; 0.1 mg SC, abdomen, FIG. 18/19) was “greater than that seen following the administration of the same control”. For the same substance, the “increase in local blood flow versus saline” value (blood flow in the skin; 0.1 mg SC, abdomen, average of 6 tests, FIG. 17) was “slightly greater than that observed when saline was administered”, the “blood flow after returning to "normal" versus before injection” value (blood flow in the skin; 0.1 mg SC, lateral upper arms, FIG. 14) was “increased compared to before the glucagon injection” and the “effect on local blood flow (flow increase)” value (blood flow in the skin; 0.1 mg SC, lateral upper arms, average of 6 tests, FIG. 14) was “several hundred percent”. The “increase in local blood flow” value (blood flow in the skin; 0.1 mg SC, lateral upper arms, average of 6 tests, FIG. 15) was 400-450 % of the baseline reading, the “period over which the vasodilatory effect can be seen” value (blood flow in the skin; SC, upper arms, FIG. 15) was 35 to 40 min and the “increase of blood flow at the site of administration” value (blood flow in the skin; administered sub-cutaneously, small blood vessels in the skin (summary statement)) was “several hundred percent”. For the same substance, the “persistence of increase in blood flow” value (blood flow in the skin; all doses (0.1, 0.015, 0.01 mg) SC, upper arms, not seen with placebo) was “found to persist even once the value had stabilised”, the “dose at which a vasodilatory effect has been observed” value (blood flow in the skin; in certain body regions, in some subjects) was under 0.01 mg and the “change in local blood flow on administration” value (blood flow in the skin; summary of the Examples) was “immediate and large increase in local blood flow”. The “level to which blood flow returns” value (blood flow in the skin; summary of the Examples, maintained over a prolonged period) was “higher than the baseline level before glucagon administration”, the “glucose levels detected by CGM after meal versus placebo site” value ([1]; 0.1 ml of 1 mg/ml injected at CGM site 1-3 minutes before meal, overarm, 23 meals) was “faster and larger increase in glucose levels detected compared to placebo” and the “time at which the effect on CGM glucose can be clearly seen” value ([1]; in one of the subjects) was 10 min. The “persistence of effect of the "slow" injection on local blood flow” value (local blood flow [2]; 0.1 mg SC, technique 2, versus fast glucagon and placebo injections) was “more persistent than the effects of any of the other injections”, the “increase in local blood flow, technique 2 (injection at least 10 seconds) versus technique 1 (1-3 seconds)” value (local blood flow [2]; 0.1 mg in 0.1 ml SC, FIG. 20/21) was “significantly larger increase in local blood flow” and the “effect on blood flow versus placebo” value (local blood flow [3]; injection 1.6 cm or 3 cm from probe centre) was “larger than placebo”. For the same substance, the “effect on blood flow versus placebo” value (local blood flow [3]; injection 5 cm from probe centre) was “except for injection 5 cm from the probe the effect was larger than placebo”, the “increase in local blood flow, placebo subtracted” value (local blood flow [3]; injection at greater distances (1.6, 3 or 5 cm from probe centre)) was “less significant” and the “increase in local blood flow, placebo subtracted” value (local blood flow [3]; injection directly under the probe, FIG. 25) was “largest increase in local blood flow”.
